Earlier results, collected in patent publication US9526701B2, “Sustained drug release and improved product stability using non-covalent particle coating methods” (priority 2011, dated 2016).

Conditions: for half life in the blood: following administration; for bioavailability: oral administration

Row | half life in the blood | bioavailability | Compound
1 | 20 to 30 h | greater than 95% | N[C@@H](Cc1cc(I)c(Oc2ccc(O)c(I)c2)c(I)c1)C(=O)O [Example T3, 3,5,3′-triiodo-L-thyronine]
2 | greater than 7 days | 45-65% | N[C@@H](Cc1cc(I)c(Oc2cc(I)c(O)c(I)c2)c(I)c1)C(=O)O [Example T4, 3,5,3′,5′-tetraiodo-L-thyronine]
